Data on 10 compounds can be found in ChEMBL document CHEMBL5107956, “Natural products from mangrove sediments-derived microbes: Structural diversity, bioactivities, biosynthesis, and total synthesis” (Eur J Med Chem, 2022).

Converted amounts (≈) assume the structure as drawn.

The subject of experiment [1] is Vibrio anguillarum. Kind of experiment: Antibacterial activity against Vibrio anguillarum assessed as cell growth inhibition. The experiment is classed as functional.
Experiment [2] deals with Vibrio harveyi. Briefly: Antibacterial activity against Vibrio harveyi assessed as cell growth inhibition. It is filed as functional.
Experiment [3] has as its system Aeromonas hydrophila. Kind of experiment: Antibacterial activity against Aeromonas hydrophila assessed as cell growth inhibition. It is filed as functional.
Experiment [4] concerns Rhizoctonia solani. Briefly: Antifungal activity against Rhizoctonia solani assessed as inhibition of fungal growth at 10 ug/ml relative to control. The experiment is classed as functional.
Experiment [5] has as its system Plasmodium falciparum. Kind of experiment: Antiplasmodial activity against Plasmodium falciparum 3D7 infected in human erythrocyte assessed as intraerythrocytic growth inhibition measured after 24 hrs by alamar blue staining based analysis. The following applies: 3D7, Erythrocyte. The experiment is classed as functional, organism-based. Background: The colour change of resazurin is a common sign of viable cells or microbes.

Experiment [6] has as its system Trypanosoma brucei brucei. Briefly: Antitrypanosomal activity against Trypanosoma brucei brucei GUTat3.1 assessed as parasite growth inhibition measured after 24 hrs by alamar blue staining based analysis. It is filed as functional, organism-based. As to conditions: GUTat3.1, 24 h.
Experiment [7] deals with Leishmania donovani. Briefly: Antileishmanial activity against Leishmania donovani D10 promastigotes assessed as parasite growth inhibition incubated for 24 hrs by alamar blue staining based analysis. It is filed as functional, organism-based. As to conditions: D10, 24 h.
For experiment [8], the system named is Leishmania major. Kind of experiment: Antileishmanial activity against Leishmania major NR48815 promastigotes assessed as parasite growth inhibition incubated for 24 hrs by alamar blue staining based analysis. The experiment is classed as functional, organism-based. As to conditions: NR48815, 24 h.
In experiment [9] the test system is HepG2 2.2.15. Briefly: Antiproliferative activity against human HepG2.2.15 cells assessed as cell growth inhibition by MTT assay. The experiment is classed as functional, cell-based. In general terms: Formazan colour is commonly taken as a measure of viable cells.
The nature of experiment [10]: Antioxidant activity assessed as DPPH radical scavenging activity incubated for 30 mins under dark condition. The experiment is classed as functional.
The subject of experiment [11] is HepG2. Briefly: Cytotoxicity against human HepG2 cells assessed as cell growth inhibition by MTT assay. It is filed as functional, cell-based.
Experiment [12] concerns HEp-2. Kind of experiment: Cytotoxicity against human HEp-2 cells assessed as cell growth inhibition by MTT assay. The experiment is classed as functional, cell-based.
In experiment [13] the test system is JeKo-1. Kind of experiment: Cytotoxicity against human JeKo-1 cells assessed as cell growth inhibition by MTT assay. The experiment is classed as functional, cell-based.
Experiment [14] has as its system Vibrio splendidus. Kind of experiment: Antibacterial activity against Vibrio splendidus as bacterial growth inhibition. It is filed as functional, organism-based.
In experiment [15] the test system is Staphylococcus aureus. Kind of experiment: Antibacterial activity against Staphylococcus aureus ATCC 25923 assessed as bacterial growth inhibition. The experiment is classed as functional, organism-based.
For experiment [16], the target named is Prostaglandin G/H synthase 2 (Homo sapiens) (UniProt P35354). Briefly: Inhibition of COX2 (unknown origin) at 20 nM relative to control.
Sequence of Prostaglandin G/H synthase 2 (Homo sapiens) (P35354 whole entry, looked up): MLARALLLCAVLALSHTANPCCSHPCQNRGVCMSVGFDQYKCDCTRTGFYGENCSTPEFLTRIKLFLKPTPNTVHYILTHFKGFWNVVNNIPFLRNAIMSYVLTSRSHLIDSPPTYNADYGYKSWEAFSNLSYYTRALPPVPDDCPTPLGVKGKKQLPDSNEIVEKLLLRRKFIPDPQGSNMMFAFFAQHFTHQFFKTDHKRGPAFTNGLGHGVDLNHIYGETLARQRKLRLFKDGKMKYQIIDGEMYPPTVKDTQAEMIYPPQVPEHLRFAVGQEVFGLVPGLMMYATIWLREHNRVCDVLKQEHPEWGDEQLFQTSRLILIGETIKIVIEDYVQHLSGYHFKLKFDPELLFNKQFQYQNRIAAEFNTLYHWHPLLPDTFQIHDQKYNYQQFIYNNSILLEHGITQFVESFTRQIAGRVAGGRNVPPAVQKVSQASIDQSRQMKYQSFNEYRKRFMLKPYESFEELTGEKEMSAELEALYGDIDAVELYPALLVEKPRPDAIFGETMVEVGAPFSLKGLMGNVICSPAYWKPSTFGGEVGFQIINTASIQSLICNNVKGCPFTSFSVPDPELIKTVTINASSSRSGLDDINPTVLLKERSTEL
Experiment [17] is described as follows: Antioxidant activity assessed as free radical scavenging activity by DPPH assay. It is filed as functional.
The test system of experiment [18] is Pseudopestalotiopsis theae. Kind of experiment: Antifungal activity Pestalotiopsis theae assessed as fungal growth inhibition per disc measured after 7 days by paper disc dilution method. The experiment is classed as functional, organism-based.

What is called MIC is the least concentration at which growth counts as inhibited. Take `C[C@H](O)/C=C1/C(=O)O[C@H]([C@@H](C)O)[C@@H]1O`: the MIC in experiment [1], in [2] and in [3] was 8 mg/L (≈ 39.6 µM) throughout.

In general, inhibition refers to the percentage by which the read-out fell short of the control. For `Cc1oc2cc3cc(O)cc(O)c3c(O)c2c(=O)c1C`, the inhibition at 10 µg/mL in experiment [4] is 50.2%.

With `Cc1c(C)[n+](CCC(C)C)c(-c2n(CCc3ccccc3)c(C)c(C)[n+]2CCC(C)C)n1CCc1ccccc1`, the IC50 in experiment [5] was found to be 9.08 µM; in experiment [6], 0.78 µM; in [7], 0.75 µM; in experiment [8], 7.02 µM.

For the compound `C[C@@H](O)Cc1cc(O)c2c(c1)C(=O)c1c(O)c(O)cc(O)c1C2=O`, the IC50 in [9] came to 4.63 µM.

As for `COc1c(O)c2c(c(O)c1CO)C(=O)OCC2`, the IC50 in experiment [10] came to 25.7 µM.

Take `COC(=O)c1cc(O)cc2oc3cc(C)c(O)cc3c(=O)c12`: the values for the IC50 in experiment [11] and in experiment [12] were 9 mg/L (≈ 30 µM) and 8 mg/L (≈ 26.6 µM), respectively.

For `CC1=CCC[C@@]2(C)C=C3OC(=O)C(CO)=C3C[C@H]12`, in experiment [13], the IC50 was 8.4 µM.

With `CC(C)=CCc1cc(C[C@@]2(C(=O)O)OC(=O)C(OC(C)(C)[C@@H](O)Cc3cc(C[C@@]4(C(=O)O)OC(=O)C(O)=C4c4ccc(O)cc4)ccc3O)=C2c2ccc(O)cc2)ccc1O`, the IC50 in [14] was 3.7 µM; in experiment [15], 1.3 µM. Also, the inhibition in experiment [16] came to 76.5%.

With `COc1cc(O)cc(C2OC(=O)c3c(O)cc(C)c(O)c32)c1O` (stereo not drawn), in experiment [17], the IC50 stood at 1.23 mg/L (≈ 3.86 µM).

As to `COC(=O)/C=C/C1=CC(=O)CC1O` (stereo not drawn), the IC50 in [18] was 125 µg.
